From ChEMBL document CHEMBL5257069, “Structure-activity relationship analysis of activity-based probes targeting HTRA family of serine proteases” (Bioorg Med Chem Lett, 2023)
Activity calls are given as the source filed them. The rule behind the calls is not given here.

Tests used:
[1] = target: T1, Periplasmic serine endoprotease DegP (Escherichia coli (strain K12)) (UniProt P0C0V0); assay: Binding affinity to recombinant Escherichia coli DegP assessed as increase in fluorescence using H2-OPT as substrate at 1 uM by SDS-PAGE based gel fluorescence scanning analysis
T1 sequence (whole entry): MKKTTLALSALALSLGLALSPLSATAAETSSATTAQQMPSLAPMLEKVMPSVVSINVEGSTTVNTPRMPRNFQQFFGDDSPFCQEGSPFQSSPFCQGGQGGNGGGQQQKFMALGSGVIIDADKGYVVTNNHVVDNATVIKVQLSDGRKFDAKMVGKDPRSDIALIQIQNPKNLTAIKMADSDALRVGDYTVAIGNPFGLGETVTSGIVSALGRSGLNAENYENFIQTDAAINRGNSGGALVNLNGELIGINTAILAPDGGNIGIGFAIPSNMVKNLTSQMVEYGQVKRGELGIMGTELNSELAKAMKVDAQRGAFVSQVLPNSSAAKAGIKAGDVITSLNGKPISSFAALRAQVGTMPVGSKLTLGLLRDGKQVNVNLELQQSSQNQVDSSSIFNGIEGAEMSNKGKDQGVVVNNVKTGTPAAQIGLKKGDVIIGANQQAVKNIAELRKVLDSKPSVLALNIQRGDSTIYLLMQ

[2] = target: T1, Periplasmic serine endoprotease DegP (Escherichia coli (strain K12)); assay: Binding affinity to Escherichia coli DegP assessed as appearance of fluorescent bands at 10 uM incubated for 2 hrs by SDS-PAGE based gel fluorescence scanning analysis
[3] = target: T1, Periplasmic serine endoprotease DegP (Escherichia coli (strain K12)); assay: Binding affinity to Escherichia coli DegP assessed as appearance of fluorescent bands at 1 to 50 uM incubated for 1 hrs by SDS-PAGE based gel fluorescence scanning analysis; details: dose 1-50 µM
[4] = target: T2, Serine protease HTRA2, mitochondrial (Homo sapiens, UniProt O43464); assay: Inhibition of recombinant human HTRA2 using H2-OPT as substrate assessed as increase in fluorescence and measured for 2 hrs by fluorescent plate reader analysis
T2 sequence (O43464 whole entry): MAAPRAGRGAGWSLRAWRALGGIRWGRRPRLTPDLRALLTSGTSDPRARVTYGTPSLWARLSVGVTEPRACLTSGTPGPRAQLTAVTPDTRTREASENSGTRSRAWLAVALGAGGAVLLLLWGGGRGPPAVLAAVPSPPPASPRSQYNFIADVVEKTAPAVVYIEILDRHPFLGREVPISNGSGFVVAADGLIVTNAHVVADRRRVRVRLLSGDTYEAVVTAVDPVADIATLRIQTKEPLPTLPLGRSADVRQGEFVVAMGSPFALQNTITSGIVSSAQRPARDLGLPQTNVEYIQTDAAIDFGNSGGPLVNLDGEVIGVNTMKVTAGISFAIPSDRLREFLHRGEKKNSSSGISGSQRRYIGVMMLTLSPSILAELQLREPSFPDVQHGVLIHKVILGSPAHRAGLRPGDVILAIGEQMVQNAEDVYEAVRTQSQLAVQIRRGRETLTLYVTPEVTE

[5] = target: T3, Serine protease HTRA2, mitochondrial (Homo sapiens) (UniProt O43464); assay: Binding affinity to recombinant human HTRA2 assessed as increase in fluorescence using H2-OPT as substrate at 1 uM by SDS-PAGE based gel fluorescence scanning analysis
T3 sequence (whole entry): T2 sequence (O43464 whole entry)

[6] = target: T4, Neutrophil elastase (Homo sapiens) (UniProt P08246); assay: Binding affinity to recombinant human neutrophil elastase assessed as increase in fluorescence using H2-OPT as substrate at 1 uM by SDS-PAGE based gel fluorescence scanning analysis; assay type: single protein
T4 sequence (whole entry): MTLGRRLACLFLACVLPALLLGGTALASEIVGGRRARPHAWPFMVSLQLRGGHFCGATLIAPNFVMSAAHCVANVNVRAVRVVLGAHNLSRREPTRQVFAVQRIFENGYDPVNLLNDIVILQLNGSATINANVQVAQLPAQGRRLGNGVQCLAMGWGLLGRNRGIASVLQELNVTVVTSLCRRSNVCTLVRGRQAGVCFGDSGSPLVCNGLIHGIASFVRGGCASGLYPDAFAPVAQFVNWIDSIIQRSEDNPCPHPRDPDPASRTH

[7] = target: Chymotrypsin (Homo sapiens) (UniProt Q99895+P17538+P40313+Q6GPI1); assay: Binding affinity to recombinant human chymotrypsin assessed as increase in fluorescence using H2-OPT as substrate at 1 uM by SDS-PAGE based gel fluorescence scanning analysis; assay type: protein assay
Serine protease HTRA1 [8] = target: T5, Serine protease HTRA1 (Homo sapiens, UniProt Q92743); assay: Inhibition of recombinant human HTRA1 using H2-OPT as substrate assessed as increase in fluorescence and measured for 2 hrs by fluorescent plate reader analysis
Serine protease HTRA1 [9] = target: T5, Serine protease HTRA1; assay: Binding affinity to human HTRA1 in human U-87 MG cells assessed as appearance of fluorescent bands at 5 uM by SDS-PAGE based In-gel fluorescence analysis; assay type: cell-based
Albumin [10] = target: Albumin (Homo sapiens, UniProt P02768); assay: Binding affinity to human serum albumin assessed as appearance of fluorescent bands at 2 uM by SDS-PAGE based In-gel fluorescence analysis
Serine protease HTRA1 [11] = target: T5, Serine protease HTRA1; assay: Binding affinity to recombinant human HTRA1 in human serum assessed as appearance of fluorescent bands at 2 uM by In-gel fluorescence analysis; assay type: cell-free
Albumin [12] = target: Albumin (Bos taurus, UniProt P02769); assay: Binding affinity to bovine serum albumin in human U-87 MG cell culture media assessed as appearance of fluorescent bands at 5 uM by SDS-PAGE based In-gel fluorescence analysis; details: cattle
Serine protease HTRA1 [13] = target: T5, Serine protease HTRA1; assay: Inhibition of recombinant human HTRA1 using H2-OPT as substrate assessed as increase in fluorescence at 1 uM and measured for 2 hrs by fluorescent plate reader analysis
[14] = target: T3, Serine protease HTRA2, mitochondrial (Homo sapiens); assay: Inhibition of recombinant human HTRA2 using H2-OPT as substrate assessed as increase in fluorescence at 1 uM and measured for 2 hrs by fluorescent plate reader analysis
Trypsin (Homo sapiens) = Trypsin (Homo sapiens) (UniProt P07477+P07478+P35030); assay: Binding affinity to recombinant human trypsin assessed as increase in fluorescence using H2-OPT as substrate at 1 uM by SDS-PAGE based gel fluorescence scanning analysis; assay type: protein assay
Serine protease HTRA1 [15] = target: T5, Serine protease HTRA1; assay: Binding affinity to human HTRA1 in Amyloid-beta treated human U-87 MG cells assessed as appearance of fluorescent bands at 5 uM by SDS-PAGE based In-gel fluorescence analysis; assay type: cell-based

T5 sequence (Q92743 whole entry): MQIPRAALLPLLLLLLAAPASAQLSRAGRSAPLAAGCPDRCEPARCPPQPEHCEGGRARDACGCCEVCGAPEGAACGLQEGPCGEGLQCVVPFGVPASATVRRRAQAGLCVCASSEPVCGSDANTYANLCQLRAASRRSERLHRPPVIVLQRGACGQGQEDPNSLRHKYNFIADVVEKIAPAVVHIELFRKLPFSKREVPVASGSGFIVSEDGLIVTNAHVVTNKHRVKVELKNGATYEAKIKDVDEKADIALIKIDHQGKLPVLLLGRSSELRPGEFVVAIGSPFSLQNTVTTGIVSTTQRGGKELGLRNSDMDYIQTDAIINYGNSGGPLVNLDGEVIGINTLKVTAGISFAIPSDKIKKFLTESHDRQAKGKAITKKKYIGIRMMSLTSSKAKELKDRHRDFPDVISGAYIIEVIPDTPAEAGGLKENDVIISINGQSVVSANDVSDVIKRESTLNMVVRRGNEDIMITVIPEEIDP
Albumin (Homo sapiens, UniProt P02768), sequence (P02768 whole entry): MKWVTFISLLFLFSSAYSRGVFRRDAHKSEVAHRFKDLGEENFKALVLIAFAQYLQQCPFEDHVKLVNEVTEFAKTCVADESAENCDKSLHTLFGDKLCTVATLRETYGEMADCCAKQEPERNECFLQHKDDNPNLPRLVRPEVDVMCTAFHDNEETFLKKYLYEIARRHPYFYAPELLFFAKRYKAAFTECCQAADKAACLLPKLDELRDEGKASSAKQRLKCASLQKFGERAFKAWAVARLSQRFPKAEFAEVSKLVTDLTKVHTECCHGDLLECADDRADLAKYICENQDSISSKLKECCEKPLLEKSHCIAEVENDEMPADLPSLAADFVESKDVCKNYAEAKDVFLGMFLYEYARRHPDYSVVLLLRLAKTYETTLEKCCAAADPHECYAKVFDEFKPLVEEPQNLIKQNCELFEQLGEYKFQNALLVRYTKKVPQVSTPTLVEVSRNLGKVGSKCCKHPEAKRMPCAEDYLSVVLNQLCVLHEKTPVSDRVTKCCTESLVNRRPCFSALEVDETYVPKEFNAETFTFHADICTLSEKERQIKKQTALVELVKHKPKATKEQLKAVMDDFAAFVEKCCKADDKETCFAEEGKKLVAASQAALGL
Albumin (Bos taurus, UniProt P02769), sequence (P02769 whole entry): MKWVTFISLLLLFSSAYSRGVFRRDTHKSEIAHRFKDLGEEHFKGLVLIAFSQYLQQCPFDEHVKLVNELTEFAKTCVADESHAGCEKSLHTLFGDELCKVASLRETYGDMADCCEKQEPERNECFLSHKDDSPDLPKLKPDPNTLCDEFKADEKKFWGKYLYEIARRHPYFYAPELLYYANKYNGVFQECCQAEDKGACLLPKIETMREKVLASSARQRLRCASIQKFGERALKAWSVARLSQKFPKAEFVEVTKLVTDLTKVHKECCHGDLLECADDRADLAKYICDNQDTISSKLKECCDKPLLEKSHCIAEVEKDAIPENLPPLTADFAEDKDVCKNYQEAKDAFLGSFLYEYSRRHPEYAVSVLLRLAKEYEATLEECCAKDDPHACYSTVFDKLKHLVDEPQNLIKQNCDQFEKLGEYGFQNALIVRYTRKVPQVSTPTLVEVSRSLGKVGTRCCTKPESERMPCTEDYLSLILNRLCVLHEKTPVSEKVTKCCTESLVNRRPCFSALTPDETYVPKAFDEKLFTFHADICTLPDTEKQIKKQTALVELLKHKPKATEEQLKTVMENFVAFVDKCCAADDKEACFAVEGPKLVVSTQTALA

Compound	Activity [1]	IC50 [4] [µM]	Activity [5]	Activity [6]	Activity [7]	further results
CC[C@H](NC(=O)[C@H](CCCCN)NC(=O)[C@H](Cc1ccccc1)NC(=O)CCCCCNC(=O)c1ccc(C(=O)O)c(-c2c3ccc(=O)cc-3oc3cc(O)ccc23)c1)C(=O)N[C@@H](C(C)C)P(=O)(Oc1ccccc1)Oc1ccccc1	Active	27				Activity [2]: Active; Activity [3]: Dose-Dependent Effect
CC(C)C[C@H](NC(=O)CCCCCNC(=O)c1ccc(C(=O)O)c(-c2c3ccc(=O)cc-3oc3cc(O)ccc23)c1)C(=O)N[C@@H](Cc1ccc2ccccc2c1)C(=O)N[C@@H](CC(C)C)C(=O)N[C@@H](C(C)C)P(=O)(Oc1ccccc1)Oc1ccccc1	inactive	5.4	Active	Active	Active	
CC(C)[C@H](NC(=O)[C@H](CC(C)(C)C)NC(=O)[C@H](CCCCN)NC(=O)[C@H](Cc1ccccc1)NC(=O)CCCCCNC(=O)c1ccc(C(=O)O)c(-c2c3ccc(=O)cc-3oc3cc(O)ccc23)c1)P(=O)(Oc1ccccc1)Oc1ccccc1	inactive					
CC(C)C[C@H](NC(=O)[C@H](CCCCN)NC(=O)[C@H](Cc1ccccc1)NC(=O)CCCCCNC(=O)c1ccc(C(=O)O)c(-c2c3ccc(=O)cc-3oc3cc(O)ccc23)c1)C(=O)N[C@@H](C(C)C)P(=O)(Oc1ccccc1)Oc1ccccc1	Active	24				
CC(C)C[C@H](NC(=O)CCCCCNC(=O)c1ccc(C(=O)O)c(-c2c3ccc(=O)cc-3oc3cc(O)ccc23)c1)C(=O)N[C@@H](Cc1ccccc1)C(=O)N[C@@H](CC(C)C)C(=O)N[C@@H](C(C)C)P(=O)(Oc1ccccc1)Oc1ccccc1		7.8				IC50 (Serine protease HTRA1 [8]): 2 µM; Activity (Serine protease HTRA1 [9]): Active; Activity (Albumin [10]): Not Active; Activity (Serine protease HTRA1 [11]): Active
CC(C)C[C@H](NC(=O)CCCCCNC(=O)c1ccc(C(=O)O)c(-c2c3ccc(=O)cc-3oc3cc(O)ccc23)c1)C(=O)N[C@@H](Cc1ccccc1)C(=O)N[C@@H](CC1CC1)C(=O)N[C@@H](C(C)C)P(=O)(Oc1ccccc1)Oc1ccccc1	inactive	5.2	Active			Activity (Albumin [12]): Active
CC(C)C[C@H](NC(=O)[C@H](CCCCN)NC(=O)[C@H](Cc1ccc2ccccc2c1)NC(=O)CCCCCNC(=O)c1ccc(C(=O)O)c(-c2c3ccc(=O)cc-3oc3cc(O)ccc23)c1)C(=O)N[C@@H](C(C)C)P(=O)(Oc1ccccc1)Oc1ccccc1		12	Active	Active	Active	
NCCc1ccc(S(=O)(=O)F)cc1		> 1000				IC50 (Serine protease HTRA1 [8]): > 1000 µM; inhibition (Serine protease HTRA1 [13]): 20%; inhibition [14]: 20%
CC(C)[C@H](NC(=O)C1(NC(=O)[C@H](CCCCN)NC(=O)[C@H](Cc2ccccc2)NC(=O)CCCCCNC(=O)c2ccc(C(=O)O)c(-c3c4ccc(=O)cc-4oc4cc(O)ccc34)c2)CC1)P(=O)(Oc1ccccc1)Oc1ccccc1	inactive		inactive	inactive	inactive	Activity (Trypsin (Homo sapiens)): inactive
CC(C)C[C@H](NC(=O)[C@H](CCCCN)NC(=O)[C@H](Cc1ccc2ccccc2c1)NC(=O)CCCCCNC(=O)c1ccc(C(=O)O)c(-c2c3ccc(=O)cc-3oc3cc(O)ccc23)c1)C(=O)N[C@@H](CC(C)C)P(=O)(Oc1ccccc1)Oc1ccccc1			Active	Active	Active	
CC(C)C[C@H](NC(=O)CCCCCNC(=O)c1ccc(C(=O)O)c(-c2c3ccc(=O)cc-3oc3cc(O)ccc23)c1)C(=O)N[C@@H](Cc1ccccc1)C(=O)NC1(C(=O)N[C@@H](C(C)C)P(=O)(Oc2ccccc2)Oc2ccccc2)CC1	inactive		inactive	inactive	inactive	Activity (Trypsin (Homo sapiens)): inactive
O=C1C(=Cc2ccc(-c3ccccc3[N+](=O)[O-])o2)C(=O)N(c2ccccc2)C(=S)N1c1ccccc1		18				IC50 (Serine protease HTRA1 [8]): > 50 µM
CC(C)[C@H](NC(=O)[C@H](CC1CC1)NC(=O)[C@H](CCCCN)NC(=O)[C@H](Cc1ccccc1)NC(=O)CCCCCNC(=O)c1ccc(C(=O)O)c(-c2c3ccc(=O)cc-3oc3cc(O)ccc23)c1)P(=O)(Oc1ccccc1)Oc1ccccc1		8.3	Active			IC50 (Serine protease HTRA1 [8]): 6.3 µM; Activity (Serine protease HTRA1 [9]): Active; Activity (Serine protease HTRA1 [15]): Active; Activity (Albumin [10]): Not Active; Activity (Serine protease HTRA1 [11]): Active
CC[C@H](NC(=O)[C@H](CCCCN)NC(=O)[C@H](Cc1ccccc1)NC(=O)CCCCCNC(=O)c1ccc(C(=O)O)c(-c2c3ccc(=O)cc-3oc3cc(O)ccc23)c1)C(=O)N[C@@H](CC(C)C)P(=O)(Oc1ccccc1)Oc1ccccc1	inactive					
CC(C)C[C@H](NC(=O)CCCCCNC(=O)c1ccc(C(=O)O)c(-c2c3ccc(=O)cc-3oc3cc(O)ccc23)c1)C(=O)N[C@@H](Cc1ccccc1)C(=O)N[C@@H](CC(C)(C)C)C(=O)N[C@@H](C(C)C)P(=O)(Oc1ccccc1)Oc1ccccc1	inactive	8.1	Active			
CC(C)C[C@H](NC(=O)C1(NC(=O)[C@H](CCCCN)NC(=O)[C@H](Cc2ccccc2)NC(=O)CCCCCNC(=O)c2ccc(C(=O)O)c(-c3c4ccc(=O)cc-4oc4cc(O)ccc34)c2)CC1)P(=O)(Oc1ccccc1)Oc1ccccc1	inactive		inactive	inactive	inactive	Activity (Trypsin (Homo sapiens)): inactive
